Assay results from PMC7953584, “An Experimental Study on [^125I]I-pHLIP (Var7) for SPECT/CT Imaging of an MDA-MB-231 Triple-Negative Breast Cancer Mouse Model by Targeting the Tumor Microenvironment” (Molecular Imaging, 2021).
Where two headings read alike, the source gives them in different places. Residues, ends and D or L forms follow the SMILES beside them.

Tests used:
[1] = Biodistribution in tumor-bearing nude mice; assay type: in vivo; conditions: female, BALB/c nude, mouse, iv, 1480 kBq/200 uL, total radioactivity, ~1480 kBq/200 μL tail vein, mean ± SD, n = 3; for tissue uptake at 0.5 h: 0.5 h after injection; for tissue uptake at 1 h: 1 h after injection; for tissue uptake at 2 h: 2 h after injection; for tissue uptake at 4 h: 4 h after injection; for tissue uptake at 8 h: 8 h after injection
Procedure: (§1) A mouse model bearing a human breast cancer cell line, MDA-MB-231, was established. MDA-MB-231 cells were cultured using the conventional method. Cells were collected at the logarithmic growth phase and washed once with PBS. The cells were then diluted to prepare suspensions at a concentration of approximately 1 × 10^6 cells/mL, which were temporarily stored in an ice box. Female 4-week-old BALB/c nude mice (16-20 g) were selected. MDA-MB-231 cells were inoculated subcutaneously using a disposable insulin syringe inserted into the right lateral thighs of the nude mice. The number of inoculated cells in each nude mouse was approximately 0.1 mL. The nude mice were raised under specific pathogen-free (SPF) conditions.
Biodistribution experiments were conducted when the tumor diameter was 0.8-1.0 cm. Purified [^125I]I-pHLIP (Var7) was diluted with PBS, and a total of 15 tumor-bearing nude mice with no significant differences in tumor size were randomly divided into five cohorts. Nude mice in each cohort were injected with [^125I]I-pHLIP (Var7) at approximately 1480 kBq/200 μL through the tail vein. At 0.5, 1, 2, 4, and 8 h after injection, blood was collected from the orbital sinus. The mice were sacrificed, and tissues and organs, including the heart, liver, spleen, lung, kidney, pancreas, stomach, small intestine, bladder, thyroid, brain, bone, muscle, and tumors, were collected and weighed. The radioactive count was measured, and the results were converted to %ID/g.

[2] = system: MDA-MB-231 tumor-bearing mice; assay: Small-animal SPECT/CT imaging; assay type: in vivo, BALB/c nude mice; conditions: 1 and 2 h after injection; 3.7 MBq/200 μL tail vein; thyroid blocked with 0.1% KI
Procedure: as §1
Imaging was started when the diameter of the tumor grew to 0.8-1.0 cm. Three days before imaging, 3 nude mice began to drink 0.1% KI solution to block the thyroid gland until the end of the experiment. • The machine was calibrated daily • Anesthesia Induction. […] Imaging settings for the SPECT/CT and reconstruction are as follows: the time per frame was 10 min, voxel size was 0.8 mm, number of subsets was 32, and number of iterations was 15 • The injection time, injection dose, and residual dose were recorded according to the tables in the experiment

[3] = bladder, read-out: distribution in bladder
[4] = blood, read-out: distribution in blood
[5] = bone, read-out: distribution in bone
[6] = brain, read-out: distribution in brain
[7] = heart, read-out: distribution in heart
[8] = kidney, read-out: distribution in kidney
[9] = liver, read-out: distribution in liver
[10] = lung, read-out: distribution in lung
[11] = muscle, read-out: distribution in muscle
[12] = pancreas, read-out: distribution in pancreas
[13] = small intestine, read-out: distribution in small intestine
[14] = spleen, read-out: distribution in spleen
[15] = stomach, read-out: distribution in stomach
[16] = thyroid, read-out: distribution in thyroid
[17] = tumor (MDA-MB-231), MDA-MB-231 tumor, read-out: distribution in tumor

SMILES: CC(C)C[C@H](NC(=O)[C@H](CCC(=O)O)NC(=O)[C@H](CC(C)C)NC(=O)[C@H](CC(C)C)NC(=O)[C@H](CC(C)C)NC(=O)[C@@H](NC(=O)[C@H](CCC(=O)O)NC(=O)[C@@H](NC(=O)[C@@H]1CCCN1C(=O)[C@H](Cc1ccccc1)NC(=O)[C@H](CC(C)C)NC(=O)[C@H](Cc1c[nH]c2ccccc12)NC(=O)[C@H](CCC(=O)O)NC(=O)[C@H](CC(C)C)NC(=O)[C@H](Cc1ccc(O)c(I)c1)NC(=O)[C@H](CCCNC(=N)N)NC(=O)[C@H](C)NC(=O)[C@H](Cc1c[nH]c2ccccc12)NC(=O)[C@@H]1CCCN1C(=O)[C@H](CC(N)=O)NC(=O)[C@H](CCC(N)=O)NC(=O)[C@H](CCC(=O)O)NC(=O)[C@H](CCC(=O)O)NC(=O)[C@H](C)N)[C@@H](C)O)[C@@H](C)O)C(N)=O [[^125I]I-pHLIP (Var7)] (HELM PEPTIDE1{A.E.E.Q.N.P.W.A.R.[O=C([C@H](Cc1ccc(O)c(I)c1)N[*:1])[*:2]].L.E.W.L.F.P.T.E.T.L.L.L.E.L.[am]}$$$$V2.0)
- tissue uptake at 0.5 h [1, 3]: 3.8 ± 1.1 %ID/g
- tissue uptake at 1 h [1, 3]: 4.3 ± 1.1 %ID/g
- tissue uptake at 2 h [1, 3]: 2.1 ± 0.9 %ID/g
- tissue uptake at 4 h [1, 3]: 1 ± 0.6 %ID/g
- tissue uptake at 8 h [1, 3]: 0.5 ± 0.2 %ID/g
- tissue uptake at 0.5 h [1, 4]: 12 ± 1.5 %ID/g
- tissue uptake at 1 h [1, 4]: 6.5 ± 1.5 %ID/g
- tissue uptake at 2 h [1, 4]: 2.8 ± 0.6 %ID/g
- tissue uptake at 4 h [1, 4]: 1.2 ± 0.5 %ID/g
- tissue uptake at 8 h [1, 4]: 0.5 ± 0.1 %ID/g
- tissue uptake at 0.5 h [1, 5]: 2.9 ± 0.3 %ID/g
- tissue uptake at 1 h [1, 5]: 2.8 ± 0.1 %ID/g
- tissue uptake at 2 h [1, 5]: 1.5 ± 0.5 %ID/g
- tissue uptake at 4 h [1, 5]: 0.7 ± 0.2 %ID/g
- tissue uptake at 8 h [1, 5]: 0.2 ± 0.1 %ID/g
- tissue uptake at 0.5 h [1, 6]: 0.6 ± 0.1 %ID/g
- tissue uptake at 1 h [1, 6]: 0.5 ± 0.1 %ID/g
- tissue uptake at 2 h [1, 6]: 0.3 ± 0.1 %ID/g
- tissue uptake at 4 h [1, 6]: 0.1 ± 0.1 %ID/g
- tissue uptake at 8 h [1, 6]: 0.1 ± 0.1 %ID/g
- tissue uptake at 0.5 h [1, 7]: 4.1 ± 0.5 %ID/g
- tissue uptake at 1 h [1, 7]: 3.9 ± 0.7 %ID/g
- tissue uptake at 2 h [1, 7]: 2 ± 0.4 %ID/g
- tissue uptake at 4 h [1, 7]: 1.1 ± 1.1 %ID/g
- tissue uptake at 8 h [1, 7]: 0.5 ± 0.3 %ID/g
- tissue uptake at 0.5 h [1, 8]: 4.2 ± 0.6 %ID/g
- tissue uptake at 1 h [1, 8]: 5.1 ± 1.1 %ID/g
- tissue uptake at 2 h [1, 8]: 2.3 ± 0.8 %ID/g
- tissue uptake at 4 h [1, 8]: 1.2 ± 0.4 %ID/g
- tissue uptake at 8 h [1, 8]: 0.5 ± 0.2 %ID/g
- tissue uptake at 0.5 h [1, 9]: 13.9 ± 2.7 %ID/g
- tissue uptake at 1 h [1, 9]: 8 ± 1.9 %ID/g
- tissue uptake at 2 h [1, 9]: 4 ± 0.6 %ID/g
- tissue uptake at 4 h [1, 9]: 1.8 ± 0.2 %ID/g
- tissue uptake at 8 h [1, 9]: 0.7 ± 0.2 %ID/g
- tissue uptake at 0.5 h [1, 10]: 3.4 ± 1.2 %ID/g
- tissue uptake at 1 h [1, 10]: 2.5 ± 1 %ID/g
- tissue uptake at 2 h [1, 10]: 1.2 ± 0.5 %ID/g
- tissue uptake at 4 h [1, 10]: 0.5 ± 0.3 %ID/g
- tissue uptake at 8 h [1, 10]: 0.2 ± 0.1 %ID/g
- tissue uptake at 0.5 h [1, 11]: 1.7 ± 0.6 %ID/g
- tissue uptake at 1 h [1, 11]: 1.4 ± 0.8 %ID/g
- tissue uptake at 2 h [1, 11]: 0.6 ± 0.2 %ID/g
- tissue uptake at 4 h [1, 11]: 0.2 ± 0.1 %ID/g
- tissue uptake at 8 h [1, 11]: 0.1 ± 0.1 %ID/g
- tissue uptake at 0.5 h [1, 12]: 3.3 ± 0.8 %ID/g
- tissue uptake at 1 h [1, 12]: 4.1 ± 1.2 %ID/g
- tissue uptake at 2 h [1, 12]: 2.1 ± 0.6 %ID/g
- tissue uptake at 4 h [1, 12]: 0.9 ± 0.3 %ID/g
- tissue uptake at 8 h [1, 12]: 0.3 ± 0.1 %ID/g
- tissue uptake at 0.5 h [1, 13]: 3.3 ± 1.5 %ID/g
- tissue uptake at 1 h [1, 13]: 4.2 ± 0.6 %ID/g
- tissue uptake at 2 h [1, 13]: 2.8 ± 1 %ID/g
- tissue uptake at 4 h [1, 13]: 1.3 ± 0.5 %ID/g
- tissue uptake at 8 h [1, 13]: 0.4 ± 0.1 %ID/g
- tissue uptake at 0.5 h [1, 14]: 3 ± 1.1 %ID/g
- tissue uptake at 1 h [1, 14]: 3 ± 0.6 %ID/g
- tissue uptake at 2 h [1, 14]: 1.4 ± 0.4 %ID/g
- tissue uptake at 4 h [1, 14]: 0.7 ± 0.2 %ID/g
- tissue uptake at 8 h [1, 14]: 0.3 ± 0.1 %ID/g
- tissue uptake at 0.5 h [1, 15]: 4.7 ± 1.2 %ID/g
- tissue uptake at 1 h [1, 15]: 5.1 ± 1.2 %ID/g
- tissue uptake at 2 h [1, 15]: 4.3 ± 1 %ID/g
- tissue uptake at 4 h [1, 15]: 2.2 ± 0.8 %ID/g
- tissue uptake at 8 h [1, 15]: 0.7 ± 0.2 %ID/g
- tissue uptake at 0.5 h [1, 16]: 4.3 ± 1.7 %ID/g
- tissue uptake at 1 h [1, 16]: 5.6 ± 1.4 %ID/g
- tissue uptake at 2 h [1, 16]: 3.4 ± 1 %ID/g
- tissue uptake at 4 h [1, 16]: 1.6 ± 0.8 %ID/g
- tissue uptake at 8 h [1, 16]: 0.8 ± 0.4 %ID/g
- tissue uptake at 0.5 h [1, 17]: 3.6 ± 0.5 %ID/g
- tissue uptake at 1 h [1, 17]: 6.9 ± 0.4 %ID/g
- tissue uptake at 2 h [1, 17]: 3.6 ± 0.7 %ID/g
- tissue uptake at 4 h [1, 17]: 2 ± 0.6 %ID/g
- tissue uptake at 8 h [1, 17]: 1 ± 0.4 %ID/g
- tumor visibility on SPECT/CT [2]: clearly visible tumors
